# Molecular target: T1, Recombinant RNF126 (Homo sapiens, UniProt Q9BV68)
# T1 construct: FLAG (C); host or cells: HEK293T
# Experiment: RNF126 Binding Assay, gel-based ABPP
# Conditions: not given
# Method: RNF126 mammalian expression plasmid with a C-terminal FLAG tag was purchased from Origene (Origene Technologies Inc., RC204986). The plasmid was transformed into NEB 5-alpha Competent E. coli (DH5) cells (NEB product no. C2987H). The following day, a single transformed colony was used to inoculate 50 ml of nutrient rich LB medium containing kanamycin (50 μg/ml) and was incubated at 37° C. overnight, with agitation (250 rpm). A Miniprep (Qiagen) kit was used to isolate the plasmid before sequence verification with appropriate primers.
# HEK293T cells were grown to 30-50% confluency in DMEM supplemented with 10% FBS (Corning) and maintained at 37° C. with 5% CO2. Immediately before transfection, media was replaced with DMEM containing 5% FBS. Each plate was transfected with 24 μg of overexpression plasmid with 24 μL Lipofectamine 3000 (Invitrogen) in Opti-MEM. After 48 h cells were collected in PBS, lysed by sonication, and batch bound with anti-DYKDDDDK resin (GenScript, L00432) for 2 hours. Lysate and resin were washed with PBS and eluted with 133.33 μg/ml 3×FLAG peptide (ApexBio, A6001) in PBS. Five elutions were performed for 15 minutes each. Elutions were concentrated and the protein was stored in PBS. Concentration and purity was determined using the BCA assay and western blotting.
# Recombinant RNF126 ([…]) was pre-treated with either DMSO vehicle or covalent ligand at 37° C. for 30 min in 25 μL of PBS, and subsequently treated with of IA-Rhodamine (concentrations designated in figure legends) (Setareh Biotech) at room temperature for 1 h in the dark. The reaction was stopped by addition of 4×reducing Laemmli SDS sample loading buffer (Alfa Aesar). After boiling at 95° C. for 5 min, the samples were separated on precast 4-20% Criterion TGX gels (Bio-Rad). Probe-labeled proteins were analyzed by in-gel fluorescence using a ChemiDoc MP (Bio-Rad).
# T1 sequence (Q9BV68 whole entry): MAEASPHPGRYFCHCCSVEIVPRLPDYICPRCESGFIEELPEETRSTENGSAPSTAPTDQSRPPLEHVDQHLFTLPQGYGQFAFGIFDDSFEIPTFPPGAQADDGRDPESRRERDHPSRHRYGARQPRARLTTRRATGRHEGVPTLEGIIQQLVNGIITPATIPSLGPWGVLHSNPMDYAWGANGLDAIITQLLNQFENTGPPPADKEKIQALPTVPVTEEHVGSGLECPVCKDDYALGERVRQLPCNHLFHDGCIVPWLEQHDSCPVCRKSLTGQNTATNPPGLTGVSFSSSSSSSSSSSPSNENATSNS
row,IC50 [nM],Compound
1,> 50000,"COc1ccc(C(=O)/C(C)=C/C(=O)N2CCNCC2)cc1 [Compound 145, (E)-1-(4-methoxyphenyl)-2-methyl-4-(piperazin-1-yl)but-2-ene-1,4-dione]"
2,1000 to 10000,"COc1ccccc1C(=O)/C=C/C(=O)N1CCNCC1 [Compound 147, (E)-1-(2-methoxyphenyl)-4-(piperazin-1-yl)but-2-ene-1,4-dione]"
3,1000 to 10000,"O=C(/C=C/C(=O)N1CCNCC1)c1ccccc1F [Compound 149, (E)-1-(2-fluorophenyl)-4-(piperazin-1-yl)but-2-ene-1,4-dione]"
4,1000 to 10000,"O=C(/C=C/C(=O)N1CCNCC1)c1ccc(F)cc1 [Compound 150, (E)-1-(4-fluorophenyl)-4-(piperazin-1-yl)but-2-ene-1,4-dione]"
5,< 100,"COc1cccc(C(=O)/C=C/C(=O)N2CCN(C(=O)OC(C)(C)C)CC2)c1 [Compound 156, tert-butyl (E)-4-(4-(3-methoxyphenyl)-4-oxobut-2-enoyl)piperazine-1-carboxylate]"
6,< 100,"Cc1cccc(C(=O)/C=C/C(=O)N2CCN(C(=O)OC(C)(C)C)CC2)c1 [Compound 157, tert-butyl (E)-4-(4-oxo-4-(m-toly1)but-2-enoyl)piperazine-1-carboxylate]"
7,< 100,"CC(C)(C)OC(=O)N1CCN(C(=O)/C=C/C(=O)c2cccc(C(F)(F)F)c2)CC1 [Compound 162, tert-butyl (E)-4-(4-oxo-4-(3-(trifluoromethyl)phenyl)but-2-enoyl)piperazine-1-carboxylate]"
8,< 100,"CC(C)(C)OC(=O)N1CCN(C(=O)/C=C/C(=O)c2cccc(Br)c2)CC1 [Compound 163, tert-butyl (E)-4-(4-(3-bromophenyl)-4-oxobut-2-enoyl)piperazine-1-carboxylate]"
9,< 100,"CC(C)(C)OC(=O)N1CCN(C(=O)/C=C/C(=O)c2ccc(Br)cc2)CC1 [Compound 164, tert-butyl (E)-4-(4-(4-bromophenyl)-4-oxobut-2-enoyl)piperazine-1-carboxylate]"
10,< 100,"Cc1ccccc1C(=O)/C=C/C(=O)N1CCN(C(=O)OC(C)(C)C)CC1 [Compound 407, tert-butyl (E)-4-(4-oxo-4-(o-tolyl)but-2-enoyl)piperazine-1-carboxylate]"
11,10000 to 50000,"COc1ccc(C(=O)/C=C\C(=O)N2CCN(C(=O)OC(C)(C)C)CC2)cc1 [Compound 411, tert-butyl (Z)-4-(4-(4-methoxyphenyl)-4-oxobut-2-enoyl)piperazine-1-carboxylate]"

# Continued, molecule first:
row,Compound,IC50 [nM]
1,"COc1ccc(C(=O)/C=C(\C)C(=O)N2CCN(C(=O)OC(C)(C)C)CC2)cc1 [Compound 166, tert-butyl (E)-4-(4-(4-methoxyphenyl)-2-methyl-4-oxobut-2-enoyl)piperazine-1-carboxylate]",10000 to 50000
2,"CC(C)(C)OC(=O)N1CCN(C(=O)/C=C/C(=O)c2ccc3c(c2)NC(=O)CO3)CC1 [Compound 401, tert-butyl (E)-4-(4-oxo-4-(3-oxo-3,4-dihydro-2H-benzo[b][1,4]oxazin-6-yl)but-2-enoyl)piperazine-1-carboxylate]",< 100
3,"CC(C)(C)OC(=O)N1CCN(C(=O)/C=C/C(=O)c2ccc3c(c2)OCC3)CC1 [Compound 404, tert-butyl (E)-4-(4-(2,3-dihydrobenzofuran-6-yl)-4-oxobut-2-enoyl)piperazine-1-carboxylate]",< 100

# Same assay, conditions: range with lower bound in nM and upper bound in μM
row,IC50 [nM],Compound
1,100 to 1000,"O=C(/C=C/C(=O)N1CCNCC1)c1ccccc1 [Compound 152, (E)-1-phenyl-4-(piperazin-1-yl)but-2-ene-1,4-dione]"
2,100 to 1000,"CC(C)(C)OC(=O)N1CCN(C(=O)/C=C/C(=O)c2ccccc2Br)CC1 [Compound 154, tert-butyl (E)-4-(4-(2-bromophenyl)-4-oxobut-2-enoyl)piperazine-1-carboxylate]"
3,100 to 1000,"CC(C)(C)OC(=O)N1CCN(C(=O)/C=C/C(=O)c2cccc(F)c2)CC1 [Compound 155, tert-butyl (E)-4-(4-(3-fluorophenyl)-4-oxobut-2-enoyl)piperazine-1-carboxylate]"
4,100 to 1000,"CC(C)(C)OC(=O)N1CCN(C(=O)/C=C/C(=O)c2ccccc2Cl)CC1 [Compound 161, tert-butyl (E)-4-(4-(2-chlorophenyl)-4-oxobut-2-enoyl)piperazine-1-carboxylate]"
5,100 to 1000,"Cc1ccc(C(=O)/C=C/C(=O)N2CCN(C(=O)OC(C)(C)C)CC2)cc1 [Compound 406, tert-butyl (E)-4-(4-oxo-4-(p-tolyl)but-2-enoyl)piperazine-1-carboxylate]"

# The remaining lines, values behind:
row,Compound,IC50 [nM]
1,"COc1ccc(C(=O)/C=C(\C#N)C(=O)N2CCN(C(=O)OC(C)(C)C)CC2)cc1 [Compound 153, tert-butyl (E)-4-(2-cyano-4-(4-methoxyphenyl)-4-oxobut-2-enoyl)piperazine-1-carboxylate]",100 to 1000
2,"CC(C)(C)OC(=O)N1CCN(C(=O)/C=C/C(=O)c2ccc3c(c2)OCCO3)CC1 [Compound 400, tert-butyl (E)-4-(4-(2,3-dihydrobenzo[b][1,4]dioxin-6-y1)-4-oxobut-2-enoy1)piperazine-1-carboxylate]",100 to 1000
3,"COc1ccc(C(=O)/C=C/C(=O)N2CCN(C(=O)OC(C)(C)C)CC2)cn1 [Compound 402, tert-butyl (E)-4-(4-(6-methoxypyridin-3-yl)-4-oxobut-2-enoyl)piperazine-1-carboxylate]",100 to 1000
4,"Cn1cc(C(=O)/C=C/C(=O)N2CCN(C(=O)OC(C)(C)C)CC2)ccc1=O [Compound 403, tert-butyl (E)-4-(4-(1-methyl-6-oxo-1,6-dihydropyridin-3-y1)-4-oxobut-2-enoyl)piperazine-1-carboxylate]",100 to 1000
5,"CC(C)(C)OC(=O)N1CCN(C(=O)/C=C/C(=O)c2ccc3c(c2)CCO3)CC1 [Compound 405, tert-butyl (E)-4-(4-(2,3-dihydrobenzofuran-5-y1)-4-oxobut-2-enoyl)piperazine-1-carboxylate]",100 to 1000
6,"C#CCCCCC(=O)N1CCN(C(=O)/C=C/C(=O)c2ccc(OC)cc2)CC1 [Compound 408, (E)-1-(4-(hept-6-ynoyl)piperazin-1-y1)-4-(4-methoxyphenyl)but-2-ene-1,4-dione]",100 to 1000
7,"C#CCOCCC(=O)N1CCN(C(=O)/C=C/C(=O)c2ccc(OC)cc2)CC1 [Compound 409, (E)-1-(4-methoxyphenyl)-4-(4-(3-(prop-2-yn-1-yloxy)propanoyl)piperazin-1-yl)but-2-ene-1,4-dione]",100 to 1000

# Molecular target: T2, BRD4 long (Homo sapiens, UniProt O60885)
# T2 construct: endogenous in cells; host or cells: HEK293T
# Experiment: BRD4 (long) degradation assay, Western blotting
# Type: cell-based
# Conditions: first value of cell (long/short)
# Method in brief: (§1)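 Cell lines were grown at 37° C with 5% CO2 (HEK293T and C33A in DMEM, A549 in F-12K, 22RV1, LNCaP and Mino in RPMI-1640, K562 and MV-4-11 in IMDM, all with 10% FBS). Lysates were BCA-normalized, then SDS/PAGE Western blots were probed with target-specific antibodies and read by IR680/IR800 fluorescent secondaries on Li-Cor.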
row,DC50 [nM],Compound
1,1000 to 5000,"Cc1sc2c(c1C)C(c1ccc(Cl)cc1)=N[C@@H](CC(=O)N[C@H]1C[C@H](NC(=O)/C=C/C(=O)c3cccc(Cl)c3Cl)C1)c1nnc(C)n1-2 [Compound 287, (E)-N-((1S,3r)-3-(2-((S)-4-(4-chlorophenyl)-2,3,9-trimethyl-6H-thieno[3,2-f][1,2,4]triazolo[4,3-a][1,4]diazepin-6-yl)acetamido)cyclobutyl)-4-(2,3-dichlorophenyl)-4-oxobut-2-enamide]"

# Same assay, conditions: first value of cell; range with lower bound in nM and upper bound in μM
row,DC50 [nM],Compound
1,100 to 1000,"Cc1sc2c(c1C)C(c1ccc(Cl)cc1)=N[C@@H](CC(=O)N[C@H]1C[C@H](NC(=O)/C=C/C(=O)c3cc(Cl)ccc3Cl)C1)c1nnc(C)n1-2 [Compound 288, (E)-N-((1S,3r)-3-(2-((S)-4-(4-chlorophenyl)-2,3,9-trimethyl-6H-thieno[3,2-f][1,2,4]triazolo[4,3-a][1,4]diazepin-6-yl)acetamido)cyclobutyl)-4-(2,5-dichlorophenyl)-4-oxobut-2-enamide]"

# Molecular target: T3, BRD4 short (Homo sapiens, UniProt O60885)
# T3 construct: endogenous in cells; host or cells: HEK293T
# Experiment: BRD4 (short) degradation assay, Western blotting
# Type: cell-based
# Conditions: second value of cell (long/short)
# Method in brief: as §1
row,DC50 [nM],Compound
1,1000 to 5000,"Cc1sc2c(c1C)C(c1ccc(Cl)cc1)=N[C@@H](CC(=O)N[C@H]1C[C@H](NC(=O)/C=C/C(=O)c3cccc(Cl)c3Cl)C1)c1nnc(C)n1-2 [Compound 287, (E)-N-((1S,3r)-3-(2-((S)-4-(4-chlorophenyl)-2,3,9-trimethyl-6H-thieno[3,2-f][1,2,4]triazolo[4,3-a][1,4]diazepin-6-yl)acetamido)cyclobutyl)-4-(2,3-dichlorophenyl)-4-oxobut-2-enamide]"

# Same assay, conditions: second value of cell; range with lower bound in nM and upper bound in μM
row,DC50 [nM],Compound
1,100 to 1000,"Cc1sc2c(c1C)C(c1ccc(Cl)cc1)=N[C@@H](CC(=O)N[C@H]1C[C@H](NC(=O)/C=C/C(=O)c3cc(Cl)ccc3Cl)C1)c1nnc(C)n1-2 [Compound 288, (E)-N-((1S,3r)-3-(2-((S)-4-(4-chlorophenyl)-2,3,9-trimethyl-6H-thieno[3,2-f][1,2,4]triazolo[4,3-a][1,4]diazepin-6-yl)acetamido)cyclobutyl)-4-(2,5-dichlorophenyl)-4-oxobut-2-enamide]"
